# Results reported in a melting point compilation (Tetko et al.).
row,SMILES,melting point [°C]
1,O=C(O)CCc1c(-c2ccc(F)cc2)[nH]c2ccccc12,114 to 121
2,CN(C)C(=O)Sc1cnc2nccn2c1,129 to 131
3,COCCN1C(=O)CC(=O)NC1=S,148 to 150
4,Cc1ccc(-c2nn(-c3ccccc3Cl)cc2C(=O)O)cc1,257 to 259
5,Cn1cc(C(=O)O)c(-c2cccs2)n1,179 to 181
6,CCOC(=O)c1sc(-c2ccc(Cl)cc2)cc1N,200 to 202
7,O=C(NCCS(=O)(=O)Cl)OCc1ccccc1,39 to 41
8,CNc1cc(Cl)cc(CO)c1,49 to 51
9,COCCn1ncc2ccc(N)cc21,86 to 88
10,NNC(=O)Nc1ccc(S(N)(=O)=O)cc1,216 to 218
11,Cn1ccnc1C(N)c1ccc(Cl)cc1 (configuration not stated),45 to 49
12,Cc1nc(-c2cccc([N+](=O)[O-])c2)no1,108 to 110
13,Cc1cccc(NC(=O)N2CCCC(C(=O)O)C2)c1 (configuration not stated),139 to 141
14,Nc1nnc(-c2ccc3c(c2)CCC3)o1,273 to 275
15,Cc1nc(Cc2nnc(S)o2)cs1,194 to 196
16,CCc1ccc(OCc2nnc(S)n2Cc2ccccc2)cc1,137 to 139
17,O=C1CCc2ccc(Br)cc2N1,176 to 178
18,O=C1CC(c2cccnc2)CN1 (configuration not stated),69 to 71
19,CC(C)c1ccc(S(=O)(=O)NCCC(=O)O)cc1,195 to 205
20,Cn1cc(C(=O)O)c(-c2ccc3c(c2)OCCCO3)n1,199 to 201
21,CC(=O)Nc1cccc(CO)c1,113 to 115
22,Cc1oc(-c2ccco2)nc1CC(=O)O,176 to 178
23,CS(=O)(=O)c1cc(C(=O)O)ccc1Cl,216 to 218
24,CCOC(=O)c1nc(NCc2ccccc2)sc1C,98 to 100
25,Cc1ccc(CNC(=O)NCC(=O)O)cc1,174 to 176
26,Cc1nc(-c2cccc(Cl)c2)sc1C(=O)O,191 to 193

row,SMILES,melting point [°C]
1,COC(=O)C1CCN(c2nc3ccccc3s2)CC1,91 to 93
2,O=C(O)CNC(=O)c1c(F)cccc1Cl,197 to 199
3,CCOC(=O)c1cc([N+](=O)[O-])cnc1C,45 to 52
4,Nc1nc2ccccc2n1C1CCCCC1,206 to 208
5,O=C(O)CCNS(=O)(=O)c1cccc(Br)c1,146 to 148
6,COc1ccc(C(=O)O)cc1S(=O)(=O)Cl,153 to 155
7,Cc1nc2c(C(N)=O)cnn2c(C)c1CCC(=O)O,282 to 284
8,O=C(O)c1cnc2c(c1)c(C1CC1)nn2-c1ccccc1,250 to 252
9,Cc1cc(N)ccc1Oc1cccnc1,90 to 92
10,c1ccc(-c2cn[nH]c2)cc1,229 to 231
11,COC(=O)Nc1ccccc1O,120 to 122
12,NC(C(=O)O)c1ccccc1Br (configuration not stated),199 to 201
13,O=C(O)c1cc2ccc(Cl)cc2[nH]1,242 to 244
14,NCc1ccccc1CN1C(=O)NC2(CCCCC2)C1=O,141 to 143
15,Nc1nc(Cl)c(Cl)c(N)c1Cl,206 to 208
16,CC(C)(N)CNC(=O)OC(C)(C)C,68 to 70
17,Cc1cc(C(=O)CCl)c(C)n1-c1ccc2c(c1)OCO2,98 to 110
18,Cc1ccc(S(C)(=O)=O)cc1C(=O)O,204 to 206
19,CC(=O)c1ccc(S(=O)(=O)N2CCCCC2C(=O)O)cc1 (configuration not stated),132 to 134
20,CSc1[nH]c(=O)c(C(=O)O)cc1C#N,254 to 256
21,O=C(Nc1sc2c(c1C(=O)O)CCCC2)c1cccnc1,239 to 241
22,Cc1cc(C(=O)O)c(Br)s1,181 to 183
23,CNS(=O)(=O)CC1CCCN1 (configuration not stated),91 to 93
24,O=C(NCCO)c1ccn[nH]1,169 to 171
25,Cc1cc(C)n(Cc2cccc(C(N)=NO)c2)n1,137 to 139
26,Nc1ccc(-c2nnc3n2CCCC3)cc1,227 to 229

row,SMILES,melting point [°C]
1,Cc1ccc(-c2nn(-c3ccccc3)cc2C(=O)O)cc1,229 to 231
2,COC(=O)c1cn(CC(=O)O)nn1,176 to 178
3,[N-]=[N+]=Nc1ccc(Cl)cc1Cl,52 to 54
4,C=CCOc1ccc(C(=O)c2ccccc2)c(O)c1,67 to 70
5,O=C(O)CCC(=O)c1ccc(Cl)s1,122 to 124
6,O=C(O)Cn1c(-c2ccccc2Cl)nc2ccccc21,276 to 278
7,CN(C)S(=O)(=O)c1cccc(NC(=O)CCl)c1,74 to 78
8,CC1CCC(NC(=O)OC(C)(C)C)(C(=O)O)CC1 (configuration not stated),151 to 153
9,CC1CN(c2ccc(N)cc2C(F)(F)F)CC(C)O1 (configuration not stated),122 to 124
10,CC(C)NS(=O)(=O)c1ccc(Cl)c(C(=O)O)c1,147 to 149
11,O=C(O)c1c(C2CC2)nc2sccn12,163 to 165
12,CS(=O)(=O)c1cccc(C(N)c2ccc(Cl)cc2)c1 (configuration not stated),94 to 96
13,CCOC(=O)c1c(CBr)oc2ccccc12,84 to 86
14,Clc1cc2nc(-c3ccccc3)nn2cn1,225 to 227
15,NNc1ccc(S(=O)(=O)N2CCCC2)cn1,164 to 166
16,CNc1cnccn1,44 to 46
17,C#CC1CCCN(C(=O)OC(C)(C)C)C1 (configuration not stated),67 to 69
18,O=C(O)c1csc(-c2ccccc2Cl)n1,192 to 194
19,COC1CC(C(=O)O)N(C(=O)OC(C)(C)C)C1 (configuration not stated),79 to 81
20,CC(C)c1ccc(-c2nnc(N)s2)cc1,205 to 207
21,COC(=O)c1ccc(F)c(Cl)c1F,47 to 49
22,FC(F)(F)c1ccc2nnc(S)n2c1,120 to 122
23,COc1cccc(NCC(=O)NN)c1,108 to 112
24,Nc1ccc(F)c(F)c1N,114 to 117
25,Cn1ccc(CCl)cc1=O,64 to 66
26,CC1(c2cccnc2)NC(=O)NC1=O (configuration not stated),144 to 146

row,SMILES,melting point [°C]
1,COC(=O)c1nc(Cl)ccc1S(=O)(=O)Cl,143 to 145
2,Cc1nc(=N)c(C)c(C)[nH]1,196 to 198
3,O=C(O)CNC1CCS(=O)(=O)C1 (configuration not stated),241 to 243
4,COc1cc(CC#N)ccc1SC(F)F,41 to 43
5,N#Cc1ccc(Br)cc1[N+](=O)[O-],91 to 93
6,N#CCCC(=O)c1ccco1,80 to 84
7,Cc1occc1-c1nnc(S)n1N,159 to 161
8,CCOC(=O)c1sc2ncnc(Cl)c2c1C,113 to 115
9,CNC(C(N)=O)c1cccc(F)c1 (configuration not stated),153 to 155
10,FC(F)(F)c1ccccc1Nc1nnc(S)s1,197 to 199
11,Nc1cc(S(=O)(=O)Nc2ccccc2Cl)ccc1Cl,89 to 93
12,COc1cccc(C(N)=S)c1OC,146 to 148
13,CC(=O)Oc1cccc2ccc(O)nc12,251 to 253
14,CC(=O)NC(C)(C)C(=O)O,190 to 192
15,CS(=O)(=O)Cc1c(C(=O)O)oc2ccccc12,218 to 220
16,Cc1c(Cl)cc(S(N)(=O)=O)cc1[N+](=O)[O-],181 to 183
17,COc1ccc(S(N)(=O)=O)c([N+](=O)[O-])c1,143 to 145
18,O=C(O)CC1(O)CCCC1,72 to 74
19,O=C(O)C1CCCN(C(=O)Cc2ccccc2)C1 (configuration not stated),112 to 114
20,Cc1cn(-c2ccccc2Cl)nc1C(=O)O,209 to 211
21,Cc1nnc2n1CC(CO)CC2 (configuration not stated),158 to 160
22,CNc1ncc(C(F)(F)F)cc1Cl,44 to 46
23,Cc1ccc(C(N)=O)cc1O,181 to 183
24,COc1cccc2[nH]cc(CC#N)c12,133 to 135
